In patent US11332435B2, “Method for producing (3S)-3-(4-chloro-3-{[(2S,3R)-2-(4- chlorophenyl)-4,4,4-trifluoro-3-methylbutanoyl]amino}phenyl)-3-cyclo-propylpropanoic acid and the crystalline form thereof for use as a pharmaceutical ingredient” (Bayer Pharma Aktiengesellschaft, priority 2017, dated 2022):

What was measured:
[1] = bioavailability of the solid form; assay type: in vivo; details: crystalline form of modification 1
[2] = stability in the micronization process; assay type: physicochemical
[3] = thermodynamic stability of the solid form; assay type: physicochemical; details: crystalline modification 1 compared with amorphous form of WO 2012/139888

Question: What does the source list for C[C@H]([C@H](C(=O)Nc1cc([C@@H](CC(=O)O)C2CC2)ccc1Cl)c1ccc(Cl)cc1)C(F)(F)F [Example I-1, (3S)-3-(4-chloro-3-{[(2S,3R)-2-(4-chlorophenyl)-4,4,4-trifluoro-3-methylbutanoyl]amino}phenyl)-3-cyclopropylpropanoic acid]?
Answer: bioavailability [1]: reproducible bioavailability; stability in the micronization process (conversion, recrystallization) [2]: stable in the micronization process; thermodynamic stability [3]: higher thermodynamic stability
